Test results published in the NIST ThermoML archive (doi:10.1016/j.tca.2004.11.001).
Numbers after ± are expanded uncertainties.

Test: molar heat capacity at constant pressure; xn = mol fraction of the nth substance listed
Details: 101.33 kPa, Liquid

CCCCCCOCCOCCOCCOCCOCCO [2-(hexyloxytetraethoxy)ethanol] + O
molar heat capacity at constant pressure [J/K/mol]
Details | 283 K | 288 K | 298 K | 308 K | 318 K | 328 K | 338 K
x1 = 0.00036 | 75.88 ± 0.29 | 75.76 ± 0.29 | 75.66 ± 0.29 | 75.64 ± 0.29 | 75.68 ± 0.29 | 75.77 ± 0.29 | 75.85 ± 0.29
x1 = 0.00072 | 76.25 ± 0.3 | 76.13 ± 0.3 | 76.04 ± 0.3 | 76.03 ± 0.29 | 76.07 ± 0.3 | 76.14 ± 0.3 | 76.23 ± 0.3
x1 = 0.00106 | 76.6 ± 0.3 | 76.5 ± 0.3 | 76.43 ± 0.3 | 76.42 ± 0.3 | 76.46 ± 0.3 | 76.53 ± 0.3 | 76.6 ± 0.3
x1 = 0.00146 | 77.04 ± 0.3 | 76.94 ± 0.3 | 76.92 ± 0.3 | 76.95 ± 0.3 | 76.95 ± 0.3 | 76.93 ± 0.3 | 76.96 ± 0.3
x1 = 0.00175 | 77.35 ± 0.3 | 77.33 ± 0.3 | 77.41 ± 0.3 | 77.35 ± 0.3 | 77.25 ± 0.3 | 77.18 ± 0.3 | 77.19 ± 0.3
x1 = 0.0018 | 77.46 ± 0.3 | 77.42 ± 0.3 | 77.48 ± 0.3 | 77.44 ± 0.3 | 77.35 ± 0.3 | 77.28 ± 0.3 | 77.3 ± 0.3
x1 = 0.00235 | 78.13 ± 0.3 | 78.25 ± 0.3 | 78.2 ± 0.3 | 78.06 ± 0.3 | 77.88 ± 0.3 | 77.81 ± 0.3 | 77.83 ± 0.3
x1 = 0.00281 | 78.98 ± 0.31 | 78.99 ± 0.31 | 78.74 ± 0.31 | 78.45 ± 0.3 | 78.27 ± 0.3 | 78.21 ± 0.3 | 78.27 ± 0.3
x1 = 0.00324 | 79.99 ± 0.31 | 79.7 ± 0.31 | 79.24 ± 0.31 | 78.86 ± 0.31 | 78.68 ± 0.3 | 78.63 ± 0.3 | 78.61 ± 0.3
x1 = 0.00357 | 80.51 ± 0.31 | 80.06 ± 0.31 | 79.53 ± 0.31 | 79.18 ± 0.31 | 78.99 ± 0.31 | 78.93 ± 0.31 | 78.99 ± 0.31
x1 = 0.00398 | 81 ± 0.31 | 80.46 ± 0.31 | 79.78 ± 0.31 | 79.43 ± 0.31 | 79.29 ± 0.31 | 79.25 ± 0.31 | 79.27 ± 0.31
x1 = 0.00473 | 81.76 ± 0.32 | 81.26 ± 0.32 | 80.57 ± 0.31 | 80.19 ± 0.31 | 80.01 ± 0.31 | 79.95 ± 0.31 | 79.97 ± 0.31
x1 = 0.00503 | 82.06 ± 0.32 | 81.55 ± 0.32 | 80.85 ± 0.31 | 80.47 ± 0.31 | 80.3 ± 0.31 | 80.24 ± 0.31 | 80.25 ± 0.31
x1 = 0.00543 | 82.41 ± 0.32 | 81.91 ± 0.32 | 81.22 ± 0.31 | 80.85 ± 0.31 | 80.67 ± 0.31 | 80.61 ± 0.31 | 80.57 ± 0.31
x1 = 0.00585 | 82.79 ± 0.32 | 82.27 ± 0.32 | 81.58 ± 0.32 | 81.22 ± 0.31 | 81.05 ± 0.31 | 80.99 ± 0.31 | 81.01 ± 0.31
x1 = 0.0063 | 83.1 ± 0.32 | 82.58 ± 0.32 | 81.9 ± 0.32 | 81.54 ± 0.31 | 81.37 ± 0.31 | 81.31 ± 0.31 | 81.32 ± 0.31
x1 = 0.0069 | 83.54 ± 0.32 | 83.03 ± 0.32 | 82.38 ± 0.32 | 82.04 ± 0.32 | 81.89 ± 0.32 | 81.82 ± 0.32 | 81.83 ± 0.32
x1 = 0.00752 | 84.02 ± 0.32 | 83.53 ± 0.32 | 82.92 ± 0.32 | 82.62 ± 0.32 | 82.49 ± 0.32 | 82.43 ± 0.32 | 82.46 ± 0.32
x1 = 0.00819 | 84.48 ± 0.33 | 84.03 ± 0.33 | 83.46 ± 0.32 | 83.18 ± 0.32 | 83.06 ± 0.32 | 83.02 ± 0.32 | 83.06 ± 0.32
x1 = 0.00886 | 85 ± 0.33 | 84.56 ± 0.33 | 84.02 ± 0.33 | 83.75 ± 0.33 | 83.64 ± 0.32 | 83.61 ± 0.32 | 83.65 ± 0.32
x1 = 0.00969 | 85.51 ± 0.33 | 85.11 ± 0.33 | 84.64 ± 0.33 | 84.42 ± 0.33 | 84.35 ± 0.33 | 84.37 ± 0.33 | 84.46 ± 0.33
x1 = 0.0118 | 87.08 ± 0.34 | 86.76 ± 0.34 | 86.37 ± 0.33 | 86.21 ± 0.33 | 86.16 ± 0.33 | 86.19 ± 0.33 | 86.22 ± 0.33
x1 = 0.01312 | 88 ± 0.34 | 87.75 ± 0.34 | 87.46 ± 0.34 | 87.33 ± 0.34 | 87.3 ± 0.34 | 87.32 ± 0.34 | 87.37 ± 0.34
x1 = 0.01647 | 90.68 ± 0.35 | 90.57 ± 0.35 | 90.49 ± 0.35 | 90.48 ± 0.35 | 90.51 ± 0.35 | 90.58 ± 0.35 | 90.44 ± 0.35
x1 = 0.01786 | 91.44 ± 0.35 | 91.39 ± 0.35 | 91.36 ± 0.35 | 91.4 ± 0.35 | 91.49 ± 0.35 | 91.6 ± 0.35 | 91.72 ± 0.35
x1 = 0.01996 | 92.94 ± 0.36 | 92.97 ± 0.36 | 93.07 ± 0.36 | 93.17 ± 0.36 | 93.26 ± 0.36 | 93.31 ± 0.36 | 93.32 ± 0.36
x1 = 0.02247 | 94.73 ± 0.37 | 94.84 ± 0.37 | 95.04 ± 0.37 | 95.24 ± 0.37 | 95.42 ± 0.37 | 95.55 ± 0.37 | 95.59 ± 0.37
x1 = 0.02729 | 98.3 ± 0.38 | 98.56 ± 0.38 | 99 ± 0.38 | 99.32 ± 0.38 | 99.54 ± 0.38 | 99.68 ± 0.39 | 99.81 ± 0.39
x1 = 0.0303 | 100.51 ± 0.39 | 100.88 ± 0.39 | 101.48 ± 0.39 | 101.9 ± 0.4 | 102.19 ± 0.4 | 102.38 ± 0.4 | 102.52 ± 0.4
x1 = 0.03518 | 103.98 ± 0.4 | 104.48 ± 0.41 | 105.27 ± 0.41 | 105.84 ± 0.41 | 106.24 ± 0.41 | 106.51 ± 0.41 | 106.68 ± 0.41
x1 = 0.0397 | 107.24 ± 0.42 | 107.83 ± 0.42 | 108.77 ± 0.42 | 109.44 ± 0.42 | 109.93 ± 0.42 | 110.24 ± 0.43 | 110.48 ± 0.43
x1 = 0.04518 | 111.01 ± 0.43 | 111.69 ± 0.43 | 112.79 ± 0.44 | 113.6 ± 0.44 | 114.17 ± 0.44 | 114.53 ± 0.44 | 114.82 ± 0.44
x1 = 0.05201 | 115.67 ± 0.45 | 116.48 ± 0.45 | 117.75 ± 0.46 | 118.68 ± 0.46 | 119.37 ± 0.46 | 119.87 ± 0.46 | 120.21 ± 0.47
x1 = 0.06018 | 121.38 ± 0.47 | 122.34 ± 0.47 | 123.83 ± 0.48 | 124.98 ± 0.48 | 125.84 ± 0.49 | 126.57 ± 0.49 | 126.88 ± 0.49
x1 = 0.07563 | 131.77 ± 0.51 | 132.81 ± 0.51 | 134.56 ± 0.52 | 135.97 ± 0.53 | 137.1 ± 0.53 | 137.96 ± 0.53 | 138.56 ± 0.54
x1 = 0.09777 | 146.15 ± 0.56 | 147.28 ± 0.57 | 149.31 ± 0.58 | 151.06 ± 0.58 | 152.51 ± 0.59 | 153.69 ± 0.6 | 154.59 ± 0.6
x1 = 0.1356 | 170.77 ± 0.66 | 171.98 ± 0.66 | 174.29 ± 0.68 | 176.42 ± 0.68 | 178.34 ± 0.69 | 180.03 ± 0.7 | 181.46 ± 0.71
x1 = 0.1978 | 210.08 ± 0.81 | 211.39 ± 0.82 | 213.91 ± 0.83 | 216.46 ± 0.84 | 218.95 ± 0.84 | 221.31 ± 0.86 | 223.41 ± 0.87
x1 = 0.3066 | 278.42 ± 1.1 | 279.68 ± 1.1 | 282.35 ± 1.1 | 285.3 ± 1.1 | 288.41 ± 1.1 | 291.49 ± 1.1 | 294.37 ± 1.1
x1 = 0.6924 | 513.75 ± 2 | 515.35 ± 2 | 519.97 ± 2 | 524.59 ± 2 | 529.47 ± 2.1 | 534.66 ± 2.1 | 538.64 ± 2.1
x1 = 1 | 686.95 ± 2.7 | 689.21 ± 2.7 | 693.95 ± 2.7 | 698.98 ± 2.7 | 704.91 ± 2.7 | 711.23 ± 2.7 | 716.97 ± 2.8
